Source: PubChem BioAssay (NCI)
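Here, GI50 denotes the concentration required for 50% inhibition of growth. The concentration for full growth arrest is given as TGI.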

How the values were obtained:
Assay in all cases: NCI tumour cell line growth inhibition, 384-well format
U251 glioblastoma = system: U251 glioblastoma
MALME-3M melanoma = system: MALME-3M melanoma
NCI-H23 lung = system: NCI-H23 lung
SF-268 CNS = system: SF-268 CNS
MOLT-4 leukemia = system: MOLT-4 leukemia
SF-539 CNS = system: SF-539 CNS
OVCAR-4 ovarian = system: OVCAR-4 ovarian
SK-MEL-28 melanoma = system: SK-MEL-28 melanoma
A498 renal = system: A498 renal
SNB-75 CNS = system: SNB-75 CNS
OVCAR-5 ovarian = system: OVCAR-5 ovarian
OVCAR-3 ovarian = system: OVCAR-3 ovarian
A549 NSCLC = system: A549 NSCLC
UACC-257 melanoma = system: UACC-257 melanoma
SK-MEL-5 melanoma = system: SK-MEL-5 melanoma
RPMI-8226 leukemia = system: RPMI-8226 leukemia
HOP-62 NSCLC = system: HOP-62 NSCLC
NCI-H522 lung = system: NCI-H522 lung
ACHN renal = system: ACHN renal
K-562 leukemia = system: K-562 leukemia
TK-10 renal = system: TK-10 renal
HL-60(TB) leukemia = system: HL-60(TB) leukemia
COLO 205 colon = system: COLO 205 colon
CCRF-CEM leukemia = system: CCRF-CEM leukemia
HCT-15 colon = system: HCT-15 colon
NCI-H322M lung = system: NCI-H322M lung
HT29 colon = system: HT29 colon
SW-620 colon = system: SW-620 colon
HOP-92 NSCLC = system: HOP-92 NSCLC
HCT-116 colon = system: HCT-116 colon
IGROV1 ovarian = system: IGROV1 ovarian
SN12C renal = system: SN12C renal
SK-OV-3 ovarian = system: SK-OV-3 ovarian
OVCAR-8 ovarian = system: OVCAR-8 ovarian
BT-549 breast = system: BT-549 breast
MDA-MB-468 breast = system: MDA-MB-468 breast
SF-295 CNS = system: SF-295 CNS
RXF 393 renal = system: RXF 393 renal
786-0 renal = system: 786-0 renal
KM12 colon = system: KM12 colon
M14 melanoma = system: M14 melanoma
UACC-62 melanoma = system: UACC-62 melanoma
SNB-19 CNS = system: SNB-19 CNS
HS 578T breast = system: HS 578T breast
CAKI-1 renal = system: CAKI-1 renal
MDA-MB-231 breast = system: MDA-MB-231 breast
NCI-H460 NSCLC = system: NCI-H460 NSCLC
HCC-2998 colon = system: HCC-2998 colon
MCF7 breast = system: MCF7 breast
UO-31 renal = system: UO-31 renal
T-47D breast = system: T-47D breast
NCI/ADR-RES ovarian = system: NCI/ADR-RES ovarian
LOX IMVI melanoma = system: LOX IMVI melanoma
NCI-H226 lung = system: NCI-H226 lung
PC-3 prostate = system: PC-3 prostate
MDA-MB-435 melanoma = system: MDA-MB-435 melanoma
EKVX NSCLC = system: EKVX NSCLC
DU-145 prostate = system: DU-145 prostate

Cc1ccc(-n2nc(C(C)(C)C)cc2NC(=O)NCc2cc(F)ccc2Oc2ccc3c(cnn3CCO)c2)cc1
GI50 (U251 glioblastoma): 10.3 µM | TGI (U251 glioblastoma): > 100 µM | GI50 (MALME-3M melanoma): 357 nM | TGI (MALME-3M melanoma): 1490 nM | GI50 (NCI-H23 lung): 1780 nM | TGI (NCI-H23 lung): 6.08 µM | GI50 (SF-268 CNS): 45.5 nM | TGI (SF-268 CNS): 1620 nM | GI50 (MOLT-4 leukemia): 1900 nM | TGI (MOLT-4 leukemia): 5.02 µM | GI50 (SF-539 CNS): 2720 nM | TGI (SF-539 CNS): 28.6 µM | GI50 (OVCAR-4 ovarian): 12.5 µM | TGI (OVCAR-4 ovarian): 31.8 µM | GI50 (SK-MEL-28 melanoma): 1260 nM | TGI (SK-MEL-28 melanoma): 4.32 µM | GI50 (A498 renal): 8.98 µM | TGI (A498 renal): 71.8 µM | GI50 (SNB-75 CNS): 12.2 µM | TGI (SNB-75 CNS): 89 µM | GI50 (OVCAR-5 ovarian): 4.52 µM | TGI (OVCAR-5 ovarian): 50.9 µM | GI50 (OVCAR-3 ovarian): 8.85 µM | TGI (OVCAR-3 ovarian): 24.3 µM | GI50 (A549 NSCLC): 7.81 µM | TGI (A549 NSCLC): > 100 µM | GI50 (UACC-257 melanoma): 1870 nM | TGI (UACC-257 melanoma): 5.7 µM | GI50 (SK-MEL-5 melanoma): 1060 nM | TGI (SK-MEL-5 melanoma): 6.63 µM | GI50 (RPMI-8226 leukemia): 4.07 µM | TGI (RPMI-8226 leukemia): 32 µM | GI50 (HOP-62 NSCLC): 4.67 µM | TGI (HOP-62 NSCLC): 27.1 µM | GI50 (NCI-H522 lung): 3.91 µM | TGI (NCI-H522 lung): 17.1 µM | GI50 (ACHN renal): 3.28 µM | TGI (ACHN renal): 62.9 µM | TGI (K-562 leukemia): 25.8 nM | GI50 (TK-10 renal): 13.9 µM | TGI (TK-10 renal): 87.4 µM | GI50 (HL-60(TB) leukemia): 1670 nM | TGI (HL-60(TB) leukemia): 4.48 µM | GI50 (COLO 205 colon): 1260 nM | TGI (COLO 205 colon): 12.3 µM | GI50 (CCRF-CEM leukemia): 4.51 µM | TGI (CCRF-CEM leukemia): 16.7 µM | GI50 (HCT-15 colon): 5.14 µM | TGI (HCT-15 colon): > 100 µM | GI50 (NCI-H322M lung): 6.36 µM | TGI (NCI-H322M lung): > 100 µM | GI50 (HT29 colon): 1860 nM | TGI (HT29 colon): 13.8 µM | GI50 (SW-620 colon): 10.5 µM | TGI (SW-620 colon): > 100 µM | GI50 (HOP-92 NSCLC): 4.1 µM | TGI (HOP-92 NSCLC): 29.8 µM | GI50 (HCT-116 colon): 3.13 µM | TGI (HCT-116 colon): 16 µM | GI50 (IGROV1 ovarian): 2390 nM | TGI (IGROV1 ovarian): 18 µM | GI50 (SN12C renal): 3.94 µM | TGI (SN12C renal): 33 µM | GI50 (SK-OV-3 ovarian): 9.15 µM | TGI (SK-OV-3 ovarian): > 100 µM | GI50 (OVCAR-8 ovarian): 13 µM | TGI (OVCAR-8 ovarian): > 100 µM | GI50 (BT-549 breast): 4.9 µM | TGI (BT-549 breast): 27.2 µM | GI50 (MDA-MB-468 breast): 4.56 µM | TGI (MDA-MB-468 breast): 15 µM | GI50 (SF-295 CNS): 18 µM | TGI (SF-295 CNS): > 100 µM | GI50 (RXF 393 renal): 3.38 µM | TGI (RXF 393 renal): 14.5 µM | GI50 ([…]-0 renal): 4.93 µM | TGI (786-0 renal): > 100 µM | GI50 (KM12 colon): 1560 nM | TGI (KM12 colon): 11.9 µM | GI50 (M14 melanoma): 427 nM | TGI (M14 melanoma): 3.11 µM | GI50 (UACC-62 melanoma): 665 nM | TGI (UACC-62 melanoma): 5.74 µM | GI50 (SNB-19 CNS): 29.1 µM | TGI (SNB-19 CNS): > 100 µM | GI50 (HS 578T breast): 2630 nM | TGI (HS 578T breast): 15.6 µM | GI50 (CAKI-1 renal): 3.07 µM | TGI (CAKI-1 renal): > 100 µM | GI50 (MDA-MB-231 breast): 3.17 µM | TGI (MDA-MB-231 breast): > 100 µM | GI50 (NCI-H460 NSCLC): 6.4 µM | TGI (NCI-H460 NSCLC): 20.6 µM | GI50 (HCC-2998 colon): 3.47 µM | TGI (HCC-2998 colon): 13.2 µM | GI50 (MCF7 breast): 2700 nM | TGI (MCF7 breast): 14.3 µM | GI50 (UO-31 renal): 3.16 µM | TGI (UO-31 renal): 20.8 µM | GI50 (T-47D breast): 1820 nM | TGI (T-47D breast): 8.64 µM | GI50 (NCI/ADR-RES ovarian): 7.83 µM | TGI (NCI/ADR-RES ovarian): 66.4 µM | GI50 (LOX IMVI melanoma): 1620 nM | TGI (LOX IMVI melanoma): 4.41 µM | GI50 (NCI-H226 lung): 440 nM | TGI (NCI-H226 lung): 13.3 µM | GI50 (PC-3 prostate): 6.72 µM | TGI (PC-3 prostate): 53.1 µM | GI50 (MDA-MB-435 melanoma): 2740 nM | TGI (MDA-MB-435 melanoma): 89.2 µM | GI50 (EKVX NSCLC): 4.58 µM | TGI (EKVX NSCLC): 27.7 µM | GI50 (DU-145 prostate): 15 µM | TGI (DU-145 prostate): > 100 µM
